Test results reported in patent publication US20240366550A1, “Drug for Treating Prostatitis or Benign Prostatic Hyperplasia (BPH)” (Beijing University of Chemical Technology, priority 2021, published 2024).
Like-named read-outs stand apart in the source and are kept apart here.

Key:
in vivo = conditions: po
prostatic hyperplasia = conditions: of 55 subjects in total
Description: (§1) General information: this group of patients included 117 cases, aged 18 to 52 years old, with an average age of 34.5 years, and their disease duration ranged from 2 months to 5 years.
(§2) Treatment method: 10 mg of SFA per day for 4 to 6 weeks.

clinical = conditions: male, human, po, 10 mg
Description: The drug concentration of SFA in vivo was determined in 9 cases of the 115 patients: the patients took 10 mg of SFA orally every day for 3 consecutive days.

[1] = system: chronic bacterial prostatitis (type-II prostatitis patients)
Description: as §1, §2
Criteria for determining efficacy: the patients were scored according to the Chronic Prostatitis Score (NIH2CPSI) of the National Institutes of Health (NIH); the efficacy was determined based on the patient's symptoms, routine examination results of prostate fluid obtained by massage, and VB3 and EPS bacterial culture results obtained by the Meares-Stamey four-cup test.

[2] = number of patients relieved/total number of patients
[3] = of the remaining 95 cases taking the drug for 6 weeks

C[S+]([O-])CCCCN=C=S (centres unmarked) [SFA, Sulforaphane]
bioavailability (in vivo): 90%
Number of subjects, prostatic hyperplasia: Cured (prostatic hyperplasia): 52
Number of subjects, prostatic hyperplasia: Effective (prostatic hyperplasia): 2
Number of subjects, prostatic hyperplasia: Ineffective (prostatic hyperplasia): 1
concentration at 6 h (clinical; blood): 50.6 to 182 ng/mL
concentration at 6 h (clinical; prostatic fluid obtained by massage): 13.5 to 22.8 ng/mL
concentration at 6 h (clinical; semen): 2.6 to 5.5 ng/mL
total effective rate ([1]; 12 patients infected with Escherichia coli, 11 with Streptococcus agalactiae, 8 with Streptococcus faecalis): 10000
total effective rate ([1]; 115 patients, 4 to 6 weeks): 88.7%
Urination symptom score ([1]; after treatment, 10 mg SFA per day for 4 to 6 weeks, before treatment 6.8 ± 1.1, P<0.01): 3.2 ± 1.1
Quality of life score ([1]; after treatment, 10 mg SFA per day for 4 to 6 weeks, before treatment 15.2 ± 4.6, P<0.01): 7.5 ± 1.3
Pain and discomfort score ([1]; after treatment, 10 mg SFA per day for 4 to 6 weeks, before treatment 15.3 ± 2.6, P<0.01): 10.3 ± 3.2
NIH-CPSI score ([1]; after treatment, 10 mg SFA per day for 4 to 6 weeks, before treatment 35.2 ± 3.3, P<0.01): 20.1 ± 5.6
White blood cells in prostatic fluid obtained by massage: Negative ([1]; after treatment, before treatment 0): 32 number of people
White blood cells in prostatic fluid obtained by massage: ++++ ([1]; after treatment, before treatment 14): 4 number of people
White blood cells in prostatic fluid obtained by massage: +++ ([1]; after treatment, before treatment 28): 9 number of people
White blood cells in prostatic fluid obtained by massage: + ([1]; after treatment, before treatment 31): 49 number of people
White blood cells in prostatic fluid obtained by massage: ++ ([1]; after treatment, before treatment 44): 21 number of people
Relieving rate, distending pain and discomfort in the suprapubic region [1, 2]: 82.9%
Relieving rate, ejaculation pain [1, 2]: 81.2%
Relieving rate, feeling of incomplete urination [1, 2]: 67.1%
Relieving rate, frequent urination [1, 2]: 80.2%
Relieving rate, labored urination [1, 2]: 72.6%
Relieving rate, penis pain [1, 2]: 77.3%
Relieving rate, perineum pain [1, 2]: 69.5%
Relieving rate, urgent urination [1, 2]: 81.3%
Relieving rate, white urine [1, 2]: 91.2%
cases cured within 4 weeks of taking the drug ([1]; of 115 patients who completed treatment, 10 mg per day): 20 cases
cases cured [1, 3]: 15 cases
cases effective [1, 3]: 23 cases
cases ineffective [1, 3]: 13 cases
cases markedly effective [1, 3]: 44 cases
